PubChem BioAssay AID2060494 (Molecular Pharmacology Branch, DTP, NCI, 2025)

System: 435261-313-R-J1-PDC complex spheroid viability
Assay: Anticancer human tumor 435261-313-R-J1-PDC patient-derived colon adenocarcinoma cell line growth inhibition [GQUAD]
Conditions: for IC50: curve of first compound; for viability, T/C: stronger effect = lower value; active means viability on the fitted dose curve at most 10% of control; inactive means the rest
How it was run: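 Tumor cells were grown as complex spheroids with HUVEC endothelial cells and mesenchymal stem cells as stroma. G-quadruplex stabilizers were combined with targeted agents over half-log dilutions from near the clinical Cmax, or from 10 microM.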

[1] = second compound 0.0316 µM, first compound 0.0316 µM
[2] = second compound 0.0316 µM, first compound 0.316 µM
[3] = second compound 0.1 µM, first compound 0.0316 µM
[4] = second compound 0.1 µM, first compound 0.316 µM
[5] = second compound 0.316 µM, first compound 0.0316 µM
[6] = second compound 0.316 µM, first compound 0.316 µM
[7] = second compound 1 µM, first compound 0.0316 µM
[8] = second compound 1 µM, first compound 0.316 µM
[9] = second compound 3.16 µM, first compound 0.0316 µM
[10] = second compound 3.16 µM, first compound 0.316 µM
[11] = second compound 10 µM, first compound 0.0316 µM
[12] = second compound 10 µM, first compound 0.316 µM
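Further: spheroids exposed to the agents for seven days before readout.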
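Wherever viability, T/C is given: percent of vehicle control viability with DMSO wells as 100%.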

CC[C@@]1(O)C(=O)OCc2c1cc1n(c2=O)Cc2cc3c(CN(C)C)c(O)ccc3nc2-1 + Cc1cnc(CNC(=O)c2c(=O)c3ccc(N4CCCN(C)CC4)nc3n3c2sc2ccccc23)cn1
active: viability, T/C (second compound 10 µM, first compound 0.000999 µM) 0.19% | viability, T/C (second compound 10 µM, first compound 0.00316 µM) 0.19% | viability, T/C (second compound 10 µM, first compound 0.00999 µM) 0.22% | viability, T/C [11] 0.23% | viability, T/C (second compound 10 µM, first compound 0.0999 µM) 0.23% | viability, T/C [12] 0.22%
inactive: viability, T/C (second compound 0.0316 µM, first compound 0.000999 µM) 66.6% | viability, T/C (second compound 0.0316 µM, first compound 0.00316 µM) 63% | viability, T/C (second compound 0.0316 µM, first compound 0.00999 µM) 73% | viability, T/C [1] 53% | viability, T/C (second compound 0.0316 µM, first compound 0.0999 µM) 60.6% | viability, T/C [2] 72.1% | viability, T/C (second compound 0.1 µM, first compound 0.000999 µM) 57.3% | viability, T/C (second compound 0.1 µM, first compound 0.00316 µM) 69% | viability, T/C (second compound 0.1 µM, first compound 0.00999 µM) 58.7% | viability, T/C [3] 50.9% | viability, T/C (second compound 0.1 µM, first compound 0.0999 µM) 63.2% | viability, T/C [4] 53.4% | viability, T/C (second compound 0.316 µM, first compound 0.000999 µM) 53.1% | viability, T/C (second compound 0.316 µM, first compound 0.00316 µM) 59.2% | viability, T/C (second compound 0.316 µM, first compound 0.00999 µM) 50.5% | viability, T/C [5] 55.8% | viability, T/C (second compound 0.316 µM, first compound 0.0999 µM) 46.2% | viability, T/C [6] 49.3% | viability, T/C (second compound 1 µM, first compound 0.000999 µM) 31.9% | viability, T/C (second compound 1 µM, first compound 0.00316 µM) 48.8% | viability, T/C (second compound 1 µM, first compound 0.00999 µM) 35.2% | viability, T/C [7] 43.4% | viability, T/C (second compound 1 µM, first compound 0.0999 µM) 47.6% | viability, T/C [8] 34.1% | viability, T/C (second compound 3.16 µM, first compound 0.000999 µM) 16.9% | viability, T/C (second compound 3.16 µM, first compound 0.00316 µM) 20.2% | viability, T/C (second compound 3.16 µM, first compound 0.00999 µM) 21.8% | viability, T/C [9] 16% | viability, T/C (second compound 3.16 µM, first compound 0.0999 µM) 12.1% | viability, T/C [10] 8.56%
> 0.316 µM: IC50 (second compound 0.0316 µM) | IC50 (second compound 0.1 µM)
0.113 µM: IC50 (second compound 0.316 µM)
< 0.000999 µM: IC50 (second compound 1 µM) | IC50 (second compound 3.16 µM) | IC50 (second compound 10 µM)

COc1cc(C2c3cc4c(cc3C(OC3OC5COC(C)OC5C(O)C3O)C3COC(=O)C23)OCO4)cc(OC)c1O (centres undefined) + Cc1cnc(CNC(=O)c2c(=O)c3ccc(N4CCCN(C)CC4)nc3n3c2sc2ccccc23)cn1
> 10 µM: IC50 (second compound 0.0316 µM) | IC50 (second compound 0.1 µM) | IC50 (second compound 0.316 µM)
inactive: viability, T/C [1] 77.6% | viability, T/C (second compound 0.0316 µM, first compound 0.1 µM) 59.1% | viability, T/C [2] 60.8% | viability, T/C (second compound 0.0316 µM, first compound 1 µM) 56.3% | viability, T/C (second compound 0.0316 µM, first compound 3.16 µM) 55% | viability, T/C (second compound 0.0316 µM, first compound 10 µM) 54.2% | viability, T/C [3] 86.6% | viability, T/C (second compound 0.1 µM, first compound 0.1 µM) 63.6% | viability, T/C [4] 54.2% | viability, T/C (second compound 0.1 µM, first compound 1 µM) 60.7% | viability, T/C (second compound 0.1 µM, first compound 3.16 µM) 47.1% | viability, T/C (second compound 0.1 µM, first compound 10 µM) 54.5% | viability, T/C [5] 48.3% | viability, T/C (second compound 0.316 µM, first compound 0.1 µM) 60% | viability, T/C [6] 53.1% | viability, T/C (second compound 0.316 µM, first compound 1 µM) 53% | viability, T/C (second compound 0.316 µM, first compound 3.16 µM) 51.8% | viability, T/C (second compound 0.316 µM, first compound 10 µM) 50.7% | viability, T/C [7] 31.6% | viability, T/C (second compound 1 µM, first compound 0.1 µM) 38.1% | viability, T/C [8] 39% | viability, T/C (second compound 1 µM, first compound 1 µM) 43% | viability, T/C (second compound 1 µM, first compound 3.16 µM) 34.3% | viability, T/C (second compound 1 µM, first compound 10 µM) 35.6% | viability, T/C [9] 16.7% | viability, T/C (second compound 3.16 µM, first compound 0.1 µM) 16.3% | viability, T/C [10] 11.1% | viability, T/C (second compound 3.16 µM, first compound 1 µM) 12% | viability, T/C (second compound 3.16 µM, first compound 3.16 µM) 19.7% | viability, T/C (second compound 3.16 µM, first compound 10 µM) 5.43%
< 0.0316 µM: IC50 (second compound 1 µM) | IC50 (second compound 3.16 µM) | IC50 (second compound 10 µM)
active: viability, T/C [11] 0.14% | viability, T/C (second compound 10 µM, first compound 0.1 µM) 0.13% | viability, T/C [12] 0.12% | viability, T/C (second compound 10 µM, first compound 1 µM) 0.12% | viability, T/C (second compound 10 µM, first compound 3.16 µM) 0.2% | viability, T/C (second compound 10 µM, first compound 10 µM) 0.14%
